In one series the test system is Caco-2 cells. The series is described as follows: Caco-2 cell permeability. The format is in vitro ADME. The settings on record: A to B (Table 4). On the procedure:
Compound Caco-2 cell permeability was determined using the Transwell® 0.4 μm polycarbonate membrane 96-well as described before (Uchida, et al. (2009) J Pharmacol Toxicol Methods 59(1): 39-43). Briefly, Caco-2 cells monolayers were incubated over 2 hours at 37° C. Fractions were collected from receivers (basal side, B), and concentrations were assessed by UPLC/MS (Waters; Milford, MA). All compounds were tested in triplicates. The A→B (or B→A) apparent permeability coefficients (Papp) of each compound were calculated using the equation, Papp=dQ/dt×1/AC0, where dQ/dt equals the flux of a drug across the monolayer, A equals the total insert well surface area, and C0 is the initial concentration of substrate in the donor compartment.

For series [1], the system named is JAK2 and STAT5 phosphorylation. As to the kind of experiment: In vivo pharmacodynamics, phosphoflow of JAK-STAT signaling in engrafted leukemic cells. Further details: species or system mouse. The following applies: 10, 30 and 100 mg/kg i.p., 2 daily doses. On the procedure:
For pharmacodynamic studies, after engraftment, mice with >50% hCD45 cells in peripheral blood were dosed with 10, 30 or 100 mg/kg i.p. of compound 7 for 2 daily doses. One hour after the second dose, mice were euthanized, and cells collected from bone marrow and spleen. For phosphoflow cytometry analysis, 0.75×10^6 bone marrow cells in 3 ml of medium were fixed by adding 1 ml of 10% formaldehyde and incubated at room temperature for 10 minutes. The cells then were spun down at 450 g for 5 minutes and resuspended in cold 95% methanol and stored at −20° C. For immunoblotting, splenic leukemia cells were purified by hCD19 MicroBeads (Miltenyi). Cells were pelleted and total protein extracted using RIPA buffer supplemented with Halt™ Protease Inhibitor Cocktail (ThermoFisher).
Cells (7.5×105) were treated with compounds in 3 ml of IMDM containing 1% BSA for one hour followed by treatment with or without 25 ng/mL TSLP (R&D systems) for 30 minutes. Cells were fixed for 10 minutes at room temperature by adding 1 ml of 10% UltraPure Formaldehyde (Polysciences), centrifuged for 5 minutes at 450 g, resuspended in 95% methanol (Electron Microscopy Sciences) and store at −20° C. […] Cells were analyzed on BD Biosciences LSR/Fortessa (BD Biosciences, Franklin Lakes, NJ) with BD FACSDiva 7.0 software followed by FlowJo v10 (Tree Star, Inc., Ashland, OR).

The nature of series [2]: In vivo pharmacokinetic (PK) study in NSG mice. Further details: species or system mouse. The following applies: for concentration at 24 h: read-out: Clast. On the procedure:
Nontumor bearing female NSG mice (n=6), aged 8-12 weeks were dosed i.p. with single dose of compound 7 at 30 mg/kg and 100 mg/kg, respectively. Compound 7 was suspended in 60% PEG400+10% DMSO+[…] and the dosing volume is 5 ml/kg to get the target dose. For each dose, three mice were injected with a single dose and blood samples were collected at 0.5, 1, 2, 4, 8 and 24 hours by retro-orbital eye bleed technique. Blood samples ([…]) were collected and compound 7 concentration levels determined by LC-MS.

The test system of series [3] is JAK family kinases and GSPT1. As to the kind of experiment: In vivo pharmacodynamics, immunoblotting for Janus kinases and GSPT1 in engrafted leukemic cells. Further details: species or system mouse. The following applies: 10, 30 and 100 mg/kg i.p., 2 daily doses. On the procedure: Cells were washed twice with ice-cold PBS and lysed in RIPA lysis buffer (Sigma) freshly supplemented with Halt™ Protease Inhibitor Cocktail (ThermoFisher) for 15 minutes on ice. The cell pellet was removed by centrifugation at 13,000 g at 4° C. for 15 minutes. Protein concentration was measured by BCA assay (Thermo Fisher Scientific). Proteins were denatured in NuPAGE LDS 4× sample buffer supplemented with reducing agents (Invitrogen). Typically, 10-20 μg of total protein was loaded per lane on a 4%-12% NuPAGE Bis-Tris gradient gel (Invitrogen) and analyzed by standard immunoblotting and imaged using Li-COR Odyssey CLx (LI-COR Biotechnology, Lincoln, NE). Primary antibodies used were: JAK1 (Cell Signaling #3332S), JAK2 (#3230S), JAK3 (#8827S), TYK2 (#9312S), GSPT1 (#14980S), CRBN (#71810S), IKZF1 (Santa Cruz Biotechnology, SC-398265) and ACBT (Santa Cruz Biotechnology, SC-47778).
For pharmacodynamic studies, after engraftment, mice with >50% hCD45 cells in peripheral blood were dosed with 10, 30 or 100 mg/kg i.p. of compound 7 for 2 daily doses. One hour after the second dose, mice were euthanized, and cells collected from bone marrow and spleen. For phosphoflow cytometry analysis, 0.75×10^6 bone marrow cells in 3 ml of medium were fixed by adding 1 ml of 10% formaldehyde and incubated at room temperature for 10 minutes. […]
In general terms: Immunoblotting shows a protein as a band on a membrane.

Another series deals with CRLF2r B-ALL xenograft. As to the kind of experiment: In vivo efficacy in CRLF2r B-ALL xenograft (PDX) in NSG mice. Further details: species or system mouse. The settings on record: compound 7 30 mg/kg i.p. daily.
The nature of series [4]: Tolerability (weight, blood counts) of NSG mice in the in vivo efficacy study. The settings on record: 28-day period, 30 mg/kg i.p. daily. As for the experimental part:
Female NOD.Cg-Prkdcscid Il2rgtm1Wjl/SzJ (NSG) mice aged 8-12 weeks were used for xenotransplantation. All experimental work was carried out according to Office of Laboratory Animal Welfare guidelines and was approved by Institutional Animal Care and Use Committee of St. Jude Children's Research Hospital. Mice aged 8-12 weeks were inoculated by tail vein injection with 1×10^6 leukemic cells transduced with a lentiviral vector containing the firefly luciferase and yellow fluorescent protein genes (CL20SF2-Luc2aYFP) (Sprowl, et al. (2013) Clin Pharmacol Ther. 94(5): 585-592). Leukemia burden was determined by weekly bioluminescence imaging using the Xenogen IVIS-200 system and Living Image software (Caliper Life Sciences). Treatment was commenced when luminescence averaged approximately […] photons/second. Mice were dosed with compound 7 at 30 mg/kg i.p. daily. […]. At the end of the study, cells from spleen, bone marrow and blood were harvested and stained with mouse CD45-APC-Cy7, human CD45-BV405, human CD19-PE antibodies and analyzed by flow cytometry to determine the percentage of human CD45 positive cells. For western blot, spleen leukemia cells were obtained by purification with hCD19 MicroBeads (Miltenyi biotech, Cat #130-050-301) per manufacturer's protocol. Efficacy was determined by linear regression and two-way ANOVA analysis in Prism (GraphPad Software, version 8.4.2).

The mark [5] stands for this setting: NSG mice, single dose i.p. 30 mg/kg, per mouse, 30 mg/kg.
Setting [6] is: NSG mice, single dose i.p. 100 mg/kg, per mouse, 100 mg/kg.
[7] abbreviates: female, NSG, mouse, plasma, ip, 30 mg/kg, NSG mice, single dose i.p. 30 mg/kg, per mouse.

Several values for one entry are separate records, joined by “and”; a condition that tells them apart may be missing. Equal values may be shown once. Entries after “also recorded” stand apart in the source; their conditions may differ. Read-outs that look alike come from different tables or passages of the source.

Data on 1 compound can be found in patent US12624038B2, “Molecules and methods related to treatment of uncontrolled cellular proliferation” (ST. JUDE CHILDREN'S RESEARCH HOSPITAL, priority 2019, dated 2026).

The Cmax is the peak of the concentration-time curve. For orientation: AUC(0-t) means the area under the concentration-time curve up to a stated or last time point. The low end stands for less exposure, the high end for more exposure. As to `CCCn1cc(-c2nc(Nc3ccc(C(=O)NCCCCNc4cccc5c4C(=O)N(C4CCC(=O)NC4=O)C5=O)cc3)nc3[nH]ccc23)cn1` (stereo not shown) [Compound 7], the “Cac2 Papp A/B” value with Caco-2 cells is 19.12 nm/S. For the same compound, in series [1], the “inhibition of JAK2 and STAT5 phosphorylation in vivo” value is listed as “dose dependent inhibition”. Moreover, in series [2] (30 and 100 mg/kg, intraperitoneal dosing), the “plasma concentration after 24 hours” value was “well above the compounds cellular EC50 value”. The Tlast in series [2] (NSG mice, single dose i.p. 30 mg/kg, per mouse) was found to be 24 h; in series [2] (NSG mice, single dose i.p. 100 mg/kg, per mouse), 24 h. Besides, the AUClast was 1759.1 ng·h/mL and 2248.2 ng·h/mL in series [2] (setting [5]); 1884.7 ng·h/mL and 2179.3 ng·h/mL and 4459 ng·h/mL in series [2] (setting [6]). Moreover, the Clast in series [2] (setting [5]) was 53 ng/mL and 74.3 ng/mL; in series [2] (setting [6]), 79.1 ng/mL and 152 ng/mL. In addition, the Cmax was 125.8 ng/mL and 155.3 ng/mL in series [2] (setting [5]); 181.3 ng/mL and 233.2 ng/mL and 410.5 ng/mL in series [2] (setting [6]); 115 ng/mL in series [2] (female, NSG, mouse, plasma, ip, 30 mg/kg, NSG mice, single dose i.p. 30 mg/kg, per mouse, read-out: Cmax). The compound also gave an AUC(0-t) in series [2] (setting [7]) of 1350 ng·h/mL. Also, the concentration at 24 h in series [2] (setting [7]) is 45.5 ng/mL; in series [2] (female, NSG, mouse, plasma, ip, 100 mg/kg, NSG mice, single dose i.p. 100 mg/kg, per mouse), 98.1 ng/mL. In addition, in series [3], the “JAK/GSPT1 degradation in vivo” value is “near maximal at the 30 mg/kg dose”. Besides, the “spleen size and tumor burden in PDX model” value in the series on CRLF2r B-ALL xenograft is “reduced spleen size and tumor burden”. In addition, the “leukemia burden / leukemic cell proliferation in CRLF2r B-ALL xenograft” value in the series on CRLF2r B-ALL xenograft (ruxolitinib 50 mg/kg oral gavage twice daily, 28-day dosing period) is “marked reduction in leukemia burden; also recorded: slowed leukemia growth”. The “tolerability: weight and blood counts” value in series [4] is “well tolerated with no weight loss or perturbation in blood counts”.
